Assay [1] deals with T1, menin (Homo sapiens, UniProt O00255, T541A).
T1 sequence (O00255 with tags, fused parts or gaps T541A): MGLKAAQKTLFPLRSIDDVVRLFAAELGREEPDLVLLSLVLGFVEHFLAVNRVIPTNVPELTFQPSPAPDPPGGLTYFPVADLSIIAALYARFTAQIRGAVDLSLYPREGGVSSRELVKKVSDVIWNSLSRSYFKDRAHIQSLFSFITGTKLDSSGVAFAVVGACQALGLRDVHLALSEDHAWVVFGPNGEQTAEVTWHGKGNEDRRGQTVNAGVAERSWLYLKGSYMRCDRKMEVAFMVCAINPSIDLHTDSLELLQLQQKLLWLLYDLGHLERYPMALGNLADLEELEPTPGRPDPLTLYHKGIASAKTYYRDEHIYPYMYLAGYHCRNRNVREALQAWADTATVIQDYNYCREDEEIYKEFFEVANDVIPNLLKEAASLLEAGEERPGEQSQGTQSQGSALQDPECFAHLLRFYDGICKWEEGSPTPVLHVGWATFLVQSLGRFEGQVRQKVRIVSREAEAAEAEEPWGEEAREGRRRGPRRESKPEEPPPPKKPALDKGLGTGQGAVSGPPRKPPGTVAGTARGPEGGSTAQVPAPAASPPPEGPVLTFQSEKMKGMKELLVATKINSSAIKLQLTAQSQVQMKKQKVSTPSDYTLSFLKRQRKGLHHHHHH
In words: Menin/MLL fluorescence polarization (FP) assay. The class given is binding. The procedure: 1) Menin/MLL Fluorescence Polarization Assay
To a non-surface binding, black 384-well microtiter plate was added 50 nL 160× test compound in DMSO and 4 μL 2× menin in assay buffer (40 mM Tris·HCl, pH 7.5, 50 mM NaCl, 1 mM DTT and 0.001% Tween 20). After incubation of test compound and menin for 10 min at ambient temperature, 4 μL 2×FITC-MBM1 peptide (FITC-β-alanine-SARWRFPARPGT-NH2 (SEQ ID NO: 2)) in assay buffer was added, the microtiter plate centrifuged at 1000 rpm for 1 min and the assay mixtures incubated for 15 min at ambient temperature. The relative amount of menin·FITC-MBM1 complex present in an assay mixture is determined by measuring the fluorescence polarization (FP) of the FITC label with a BMG Pherastar plate reader (ex. 485 nm/em. 520 nm) at ambient temperature. The final concentrations of reagents in the binding assay are 100 nM menin, 5 nM FITC-MBM1 peptide and 0.625% DMSO in assay buffer. Dose-response titrations of test compounds are conducted using an 11 point, three-fold serial dilution scheme, starting at 31 μM.
Compound potencies were determined by first calculating % inhibition at each compound concentration according to equation 1: % inhibition=((HC−LC)−(FP^compound−LC))/(HC−LC))*100 (Eqn 1)
Where LC and HC are the FP values of the assay in the presence or absence of a saturating concentration of a compound that competes with FITC-MBM1 for binding to menin, and FP^compound is the measured FP value in the presence of the test compound. HC and LC FP values represent an average of at least 16 replicates per plate. […] 2) Proliferation Assay
(Polarisation of emitted light reports the rotation of a fluorescent probe.)

Assay [2] deals with MOLM14. In words: Proliferation assay (spheroid assay) MOLM14. The class given is cell-based, human. The procedure:
(§1) The anti-proliferative effect of menin/MLL protein/protein interaction inhibitor test compounds was assessed in human leukemia cell lines. The cell lines MV-4-11 and MOLM14 harbor MLL translocations and express the MLL fusion proteins MLL-AF4 and MLL-AF9, respectively, as well as the wildtype protein from the second allele. […] K562 and KG1 were used as a control cell lines containing two MLL wildtype alleles in order to exclude compounds that display general cytotoxic effects.
(§2) MV-4-11 and MOLM14 were cultured in RPMI-1640 (Sigma Aldrich) supplemented with 10% fetal bovine serum (HyClone), 2 mM L-glutamine (Sigma Aldrich) and 50 μg/ml gentamycin (Gibco). K562 were propagated in RPMI-1640 (Sigma Aldrich) supplemented with 20% fetal bovine serum (HyClone), 2 mM L-glutamine (Sigma Aldrich) and 50 μg/ml gentamycin (Gibco). KG1 were cultured in Iscove's MDM (Gibco) supplemented with 20% fetal bovine serum (HyClone), 2 mM L-glutamine (Sigma Aldrich) and 50 μg/ml gentamycin (Gibco).
(§3) In order to assess the anti-proliferative effects, 1,500 MV-4-11, 300 MOLM14, 750 K562 or 1,300 KG1 cells were seeded in 200 μl media per well in 96-well round bottom, ultra-low attachment plates (Costar, catalogue number 7007). Cell seeding numbers were chosen based on growth curves to ensure linear growth throughout the experiment. Test compounds were added at different concentrations and the DMSO content was normalized to 0.3%. Cells were incubated for 8 d at 37° C. and 5% CO2. Spheroid like growth was monitored in real-time by live-cell imaging (IncuCyteZOOM, Essenbio, 4× objective) acquiring one image every four hours for 8 d. Confluence (%) as a measure of spheroid size was determined using an integrated analysis tool.
(§4) In order to determine the cumulative effect of the test compounds over time, the area under the curve (AUC) in a plot of confluence against time was calculated. Confluence at the beginning of the experiment (t=0) was used as baseline for the AUC calculation.
(§5) Absolute IC50 values were calculated according to the following procedure: % Control=(AUC sample/AUC control)*100 AUC control=mean AUC of control values (cells without compound/DMSO as vehicle control)
(§6) A non-linear curve fit was applied using the least squares (ordinary) fit method to the plot of % control versus compound concentration. Based on this, the absolute IC50 value (half maximal inhibitory concentration of the test compound causing an anti-proliferative effect of 50% relative to the vehicle control) was calculated.

Assay [3] relates to MV-4-11. In words: Proliferation assay (spheroid assay) MV-4-11. Format: cell-based, human. Particulars: Homo sapiens, MV4-11, MV-4-11; averaged values; read-out: Spheroid assay MV-4-11 (IC50 (μM)). On the procedure:
as §1, §2, §3, §4, §5, §6

Where [4] appears, read: averaged values over all measurements, read-out: Menin FP assay (IC50 (μM)).
The mark [5] stands for this setting: Homo sapiens, MOLM-14, MOLM14, averaged values, read-out: Spheroid assay MOLM14 (IC50 (μM)).

Several values for one entry are separate records, joined by “and”; a condition that tells them apart may be missing. Equal entries are not always repeated. Where two headings read alike, the source gives them in different places.

A word on the IC50: it is the concentration needed to halve the response being measured. For the compound `FC(F)(F)Cc1cc2c(N3CCC4(CN(Cc5ccnnc5)C4)C3)ncnc2s1` [Compound 4], the half-inhibitory concentration (IC50) in assay [1] (setting [4]) came out at 0.73 µM. The same measure, in the same setting: the value for `Cn1ccc(CN2CC3(C2)CN(c2ncnc4sc(CC(F)(F)F)cc24)C3)n1` [Compound 34] was 0.72 µM. With `NCCCOc1cccc(CN2CC3(CCN(c4ncnc5sc(CC(F)(F)F)cc45)C3)C2)c1` [Compound 37], the IC50 in assay [2] (setting [5]) is 3.1 µM; in assay [3], 1.5 µM; in assay [1] (setting [4]), 0.17 µM. For the compound `FC(F)(F)Cc1cc2c(N3CCC4(CN(Cc5ccc[nH]5)C4)C3)ncnc2s1` [Compound 25], the IC50 in assay [2] (setting [5]) came out at 7.2 µM; in assay [3], 3.8 µM; in assay [1] (setting [4]) it was 0.31 µM.

As for `Cn1cc(CN2CC3(C2)CN(c2ncnc4sc(CC(F)(F)F)cc24)C3)cn1` [Compound 28], the IC50 in assay [2] (MOLM14 (MLL-AF9), 8 d, absolute IC50 from AUC of confluence, individual measurements (not averaged), read-out: (2) Spheroid assay MOLM14 (IC50 (μM))) is 3.2 µM and > 15 µM; in assay [1] (100 nM menin, 5 nM FITC-MBM1 peptide, individual measurements (not averaged), read-out: (1) Menin FP assay (IC50 (μM))), 0.517 µM. `Cc1ccc(CN2CC[C@]3(CCN(c4ncnc5sc(CC(F)(F)F)cc45)C3)C2)cc1` (single isomer, unassigned) [Compound 290]: the figures for the IC50 in assay [2] (setting [5]) and in assay [3] were 1.2 µM and 0.47 µM, respectively. For `FC(F)(F)Cc1cc2c(N3CC4(CN(Cc5cc[nH]n5)C4)C3)ncnc2s1` [Compound 41], the half-maximal inhibitory concentration (IC50) in assay [1] (setting [4]) turned out to be 0.63 µM. Regarding `CC(C1CCOCC1)N1CC2(CCN(c3ncnc4sc(CC(F)(F)F)cc34)C2)C1` (stereo not shown) [Compound 145], the figures for the IC50 in assay [2] (setting [5]) and in assay [3] were 7.3 µM and 1.7 µM, respectively.

For `O=C([C@@H]1C[C@@H](F)CN1)N1CC2(C1)CN(c1ncnc3sc(CC(F)(F)F)cc13)C2` [Compound 89], the results for the IC50 in assay [2] (setting [5]), in assay [3] and in assay [1] (setting [4]) were 10.5 µM, 1.3 µM and 0.045 µM, respectively. The matching figures for `FC(F)(F)Cc1cc2c(N3CC4(CN(Cc5ccccc5)C4)C3)ncnc2s1` [Compound 14]: 4.9 µM, 2.2 µM and 0.11 µM. Take `FC(F)(F)Cc1cc2c(N3CCC4(CN(Cc5cncnc5)C4)C3)ncnc2s1` [Compound 10]: the IC50 in assay [1] (setting [4]) was 2.31 µM. Regarding `CCN1CC(C(C(C)C)N2CC3(CCN(c4ncnc5sc(CC(F)(F)F)cc45)C3)C2)C1` (stereo not shown) [Compound 303], the results for the IC50 in assay [2] (setting [5]) and in assay [3] were 1.02 µM and 0.32 µM, respectively. The matching figures for `Cn1cc(CN2CC[C@@]3(CCN(c4ncnc5sc(CC(F)(F)F)cc45)C3)C2)cn1` (single isomer, unassigned) [Compound 295]: 6.7 µM and 1.16 µM. Regarding `Cn1cc2c(n1)CCCC2N1CC2(CCN(c3ncnc4sc(CC(F)(F)F)cc34)C2)C1` (single isomer, unassigned) [Compound 137], the half-maximal inhibitory concentration (IC50) was greater than 15 µM in assay [2] (setting [5]) and 10.1 µM in assay [3].

As to `Cn1cc(CN2CC3(CCN(c4ncnc5sc(CC(F)(F)F)cc45)C3)C2)cn1` [Compound 30], the IC50 is greater than 15 µM in assay [2] (setting [5]), 9.2 µM in assay [3] and 0.53 µM in assay [1] (setting [4]).

Take `Cc1ccc(CN2CC[C@@]3(CCN(c4ncnc5sc(CC(F)(F)F)cc45)C3)C2)cc1` (single isomer, unassigned) [Compound 289]: the concentration for half-maximal inhibition (IC50) in assay [2] (setting [5]) is 1.3 µM; in assay [3], 0.21 µM. For the compound `Cn1cc([C@@H](C2CCNCC2)N2CC3(CCN(c4ncnc5sc(CC(F)(F)F)cc45)C3)C2)cn1` [Compound 201], the IC50 was greater than 15 µM in assay [2] (setting [5]) and 12.7 µM in assay [3]. Take `FC(F)(F)Cc1cc2c(N3CC4(CN(Cc5cn[nH]c5)C4)C3)ncnc2s1` [Compound 40]: the IC50 in assay [1] (setting [4]) came to 0.84 µM. Still for that read-out and setting: with `FC(F)(F)Cc1cc2c(N3CCC4(CN(Cc5cncc(Cl)n5)C4)C3)ncnc2s1` [Compound 11] the figure was 0.76 µM. As for `C[C@@H](c1cnn(C)c1)N1CC2(CCN(c3ncnc4sc(CC(F)(F)F)cc34)C2)C1` [Compound 199], the values for the IC50 in assay [2] (setting [5]), in assay [3] and in assay [1] (setting [4]) were greater than 15 µM, 12.9 µM and 0.41 µM, respectively.

With `O=C(NCCO)C(c1ccccc1)N1CC2(CCN(c3ncnc4sc(CC(F)(F)F)cc34)C2)C1` (stereo not shown) [Compound 75], the IC50 in assay [1] (setting [4]) is 2.36 µM.

On to `OCc1ccccc1CN1CC2(CCN(c3ncnc4sc(CC(F)(F)F)cc34)C2)C1` [Compound 57], for which the IC50 is 8.6 µM in assay [2] (setting [5]) and 4.2 µM in assay [3]. Regarding `CC(C)n1cc(CN2CC3(CCN(c4ncnc5sc(CC(F)(F)F)cc45)C3)C2)cn1` [Compound 36], in assay [1] (setting [4]), the IC50 amounted to 0.4 µM. Consider `FC(F)(F)Cc1cc2c(N3CCC4(CN(Cc5ccncn5)C4)C3)ncnc2s1` [Compound 9], for which, in assay [1] (setting [4]), the IC50 was found to be 0.84 µM. Same read-out and setting: the value for `Cn1cc(C(CN)N2CC3(CCN(c4ncnc5sc(CC(F)(F)F)cc45)C3)C2)cn1` (stereo not shown) [Compound 195] was 1.07 µM. Still for that read-out and setting: the value for `Cn1cncc1CN1CC2(CCN(c3ncnc4sc(CC(F)(F)F)cc34)C2)C1` [Compound 23] was 0.95 µM. Same read-out and setting: with `Cc1nc(N2CCCC3(CCN(Cc4ccccc4)C3)C2)c2cc(CC(F)(F)F)sc2n1` (stereo not shown) [Compound 19] the figure was 0.81 µM; with `Cn1ccc(CN2CC3(CCN(c4ncnc5sc(CC(F)(F)F)cc45)C3)C2)n1` [Compound 35], 0.99 µM. Take `FC(F)(F)Cc1cc2c(N3CCC4(CN(Cc5cnc(Cl)cn5)C4)C3)ncnc2s1` [Compound 8]: in assay [1] (setting [4]), the 50% inhibitory concentration (IC50) stood at 0.79 µM. On to `Cn1cc2c(n1)CCCC2N1CC2(CCN(c3ncnc4sc(CC(F)(F)F)cc34)C2)C1` (single isomer, unassigned) [Compound 138], for which the concentration for half-maximal inhibition (IC50) in assay [2] (Homo sapiens, MOLM-14, 192 h, MOLM14 (MLL-AF9), 8 d, absolute IC50 from AUC of confluence, individual measurements (not averaged), read-out: (2) Spheroid assay MOLM14 (IC50 (μM))) is 7 µM. With `FC(F)(F)Cc1cc2c(N3CCC4(CN(Cc5cnc6ccccn56)C4)C3)ncnc2s1` [Compound 7], the IC50 in assay [1] (setting [4]) turned out to be 0.73 µM. With `CC(C)CN1CC2(C1)CN(c1ncnc3sc(CC(F)(F)F)cc13)C2` [Compound 44], the IC50 in assay [2] (setting [5]) was greater than 15 µM; in assay [3] it was 4.1 µM.

Regarding `[CH3][Ge]([CH3])([CH3])[CH2]N1CC2(CCN(c3ncnc4sc(CC(F)(F)F)cc34)C2)C1` [Compound 31], the IC50 in assay [1] (setting [4]) worked out at 0.087 µM.

(Values after patent US12084462B2, “Spiro bicyclic inhibitors of menin-MLL interaction” (Janssen Pharmaceutica NV, priority 2016, dated 2024).)
